14 molecules from patent US5760059A, “Indole derivatives” (Glaxo Wellcome SpA, priority 1993, dated 1998) can be followed below.

Series [1] deals with T1, strychnine insensitive glycine binding site (NMDA receptor complex) (Rattus norvegicus, UniProt P35439).
T1 construct: from tissue
The series can be described thus: affinity for strychnine insensitive glycine binding site.

In series [2] the test system is conscious dogs. Description: adverse effects in conscious dogs. The settings on record: doses up to 24 mg/kg. The series is classed as in vivo, dog. The source says: (§1) The compounds of the invention are essentially non toxic at therapeutically useful doses.
The subject of series [3] is NMDA induced convulsions in mice. Description: inhibition of NMDA induced convulsions in mice. Type of series: in vivo. The conditions noted are these: Mus musculus, dose to protect 50 % of the animals from NMDA (intracerebroventricular) convulsions. An excerpt:
In this test the ability of the compound to inhibit the generalized seizures induced by an intracerebroventricular injection of NMDA in mice was examined at a number of dose levels. […] This expressed as mg/kg is referred to as the ED50 value.

The test system of series [4] is anaesthetised cats. The series can be described thus: adverse effects in anaesthetised cats. The series is classed as in vivo, cat. The settings on record: doses up to 24 mg/kg.
Text: as §1

Where [5] appears, read: strychnine insensitive glycine binding site, read-out: pKi (converted).
The mark [6] stands for this setting: intravenous, read-out: ED50 i.v.

Where a name gives a salt, the structure may show the parent alone. Read-outs that look alike come from different tables or passages of the source.

As to `CN1C/C(=C\c2c(C(=O)O)[nH]c3cc(Cl)cc(Cl)c23)C(=O)N1c1ccccc1` [Example 23, (E) 3[(2-methyl-5-oxo-1-phenyl)pyrazolidin-4-ylidenemethyl]-4,6-dichloro-1H-indole-2-carboxylic acid], the Ki in series [1] (setting [5]) was 0.0347 µM. In the case of `O=C(O)c1[nH]c2cc(Cl)cc(Cl)c2c1/C=C1\CNN(c2ccccc2)C1=O` [Example 8, (E) 4,6-dichloro-3-(5oxy-1-phenyl-pyrazolidin-4ylidenemethyl)-1H-indole-2-carboxylic acid sodium salt], the “adverse affects when administered” value in series [2] and in series [4] was “no adverse affects” throughout. The ED50 – broadly, the dose that gives a 50% effect, or the effect in half of the subjects – in series [3] (setting [6]) was determined as 0.1 mg/kg; in series [3] (oral, read-out: ED50 po), 1.7 mg/kg. Also, in series [1] (setting [5]), the Ki was 0.01 µM. Take `O=C(O)c1[nH]c2cc(Cl)cc(Cl)c2c1/C=C1\NC(=O)N(c2ccccc2)C1=O` [Example 12, (Z) 4,6-Dichloro-3-(2,5dioxo-1-phenyl-imidazolidin-4-ylidenemethyl)-l H-indole-2-carboxylic acid]: in series [1] (setting [5]), the Ki was 0.0372 µM.

As to `CC(=O)Nc1ccc(N2NCC(=Cc3c(C(=O)O)[nH]c4cc(Cl)cc(Cl)c34)C2=O)cc1` [Example 18, 4.6-Dichloro-3-[5-oxo1-(4-acetylamino-phenyl)-pyrazolidin-4-ylidenemethyl]-1H-indole-2-carboxylic acid], in series [1] (setting [5]), the Ki is 0.02 µM. Same read-out and setting: in the case of `O=C(O)c1[nH]c2cc(Cl)cc(Cl)c2c1/C=C1\CNN(c2cccc3ccccc23)C1=O` [Example 34, (E) 4,6-dichloro-3(5-oxo-1(1-naphthyl)-pyrazolidin-4-ylidenemethyl)-1H-indole-2-carboxylic acid] it was 0.049 µM. As for `O=C(O)c1[nH]c2cc(Cl)cc(Cl)c2c1/C=C1\CCCN(c2ccccc2)C1=O` [Example 6, (E)4,6-dichloro-3-(2-oxo-1-phenyI-piperidin-3-ylidenemethyl)-1H-indole-2-carboxylic acid sodium salt], the ED50 came out at 0.09 mg/kg in series [3] (setting [6]) and 7.5 mg/kg in series [3] (oral, read-out: ED50 po). Besides, the Ki in series [1] (setting [5]) was 0.049 µM.

For `NC(=O)Nc1ccc(N2NCC(=Cc3c(C(=O)O)[nH]c4cc(Cl)cc(Cl)c34)C2=O)cc1` [Example 20, 4,6-Dichloro-3-[5-oxo-1-(4-ureido-phenyl)-pyrazolidin-4-ylidenemethyl]-1H-indole-2-carboxylic acid], the Ki in series [1] (setting [5]) is 0.0204 µM.

Consider `Nc1ccc(N2NC/C(=C\c3c(C(=O)O)[nH]c4cc(Cl)cc(Cl)c34)C2=O)cc1` [Example 10, (E) 4,6dichloro-3-[(5-oxo-1-(4-aminophenyl))pyrazolidin-4-ylidenemethyl]-1H-indole-2-carboxylic acid hydrochloride salt], for which the ED50 in series [3] (setting [6]) was determined as 0.1 mg/kg; in series [3] (oral, read-out: ED50 po) it was 1.7 mg/kg. Besides, the Ki in series [1] (setting [5]) is 0.0148 µM. On to `CS(=O)(=O)Nc1ccc(N2NCC(=Cc3c(C(=O)O)[nH]c4cc(Cl)cc(Cl)c34)C2=O)cc1` [Example 22, 4,6Dichloro-3-[1-(4-methylsulfamidophenyl)-5-oxo-pyrazolidin4-ylidenemrthyl]-1H-indole-2-carboxylic acid], for which the Ki in series [1] (setting [5]) is 0.0219 µM. With `O=C(O)c1[nH]c2cc(Cl)cc(Cl)c2c1/C=C1\CC(=O)N(c2ccccc2)C1=O` [Example 28, (E) 4,6dichloro-3-(2.5-dioxo-1-phenyl-pyrrolidin-3-ylidenemethyl)-1H-indole-2-carboxylic acid], in series [1] (setting [5]), the Ki was 0.0417 µM.

With `O=C([O-])c1[nH]c2cc(Cl)cc(Cl)c2c1/C=C1\CCN(c2ccccc2)C1=O.[Na+]` [Example 3, (E)4,6-dichloro-3-(2oxo-1-phenyl-pyrrolidin-3-ylidenemethyl) -1H-indole-2-carboxylic acid sodium salt], the ED50 in series [3] (setting [6]) is 0.08 mg/kg; in series [3] (oral, read-out: ED50 po), 3.83 mg/kg. This molecule had a Ki in series [1] of 0.0513 µM. For `O=C(O)c1[nH]c2cc(Cl)cc(Cl)c2c1C=C1CON(c2ccccc2)C1=O` [Example 26, 4,6-Dichloro-3-(3-oxo-2-phenyl-isoxazolidin-4-ylidenemethyl)-1H-indole-2-carboxylic acid], the Ki in series [1] (setting [5]) was 0.0759 µM. Take `O=C(O)c1[nH]c2cc(Cl)cc(Cl)c2c1/C=C1/NC(=O)N(c2ccccc2)C1=O` [Example 14, (E) 4,6Dichloro-3-(2.5-dioxo-1-phenyl-imidazolidin-4-ylidenemethyl)-1H-indole-2-carboxylic acid]: in series [1] (setting [5]), the Ki is 0.0741 µM. The same measure, in the same setting: in the case of `Nc1cccc(N2NC/C(=C\c3c(C(=O)O)[nH]c4cc(Cl)cc(Cl)c34)C2=O)c1` [Example 27, (E) 4,6dichloro-3[(5-oxo-1-(3-aminophenyl))pyrazolidin-4-ylidenemethyl]-1H-indole-2-carboxylic acid hydrochloride salt] it was 0.02 µM.
